Assay results published in PubChem BioAssay AID1963960 (Molecular Pharmacology Branch, DTP, NCI, 2024).

Tested on: MDA-MB-468 spheroids with HUVEC/MSC, viability
Test: Anticancer human tumor MDA-MB-468 cell line growth inhibition [PI3K];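 further: spheroids exposed to agents for seven days before readout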;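 on viability, T/C: 100% = DMSO vehicle control viability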
Conditions: for IC50: curve of first compound; for viability, T/C: stronger effect = lower value
Description: Combinatorial screen of targeted agents with the PI3K inhibitors inavolisib, alpelisib, duvelisib, and copanlisib in multi-cell type tumor spheroids
A high-throughput screen of multi-cell type tumor spheroids was designed to identify active combinations of targeted small molecules and PI3K pathway inhibitors. Complex spheroids include a stromal component modeled by human endothelial cells (HUVEC) and fibroblasts modeled by human mesenchymal stem cells (MSCs). The concentration ranges selected for each drug and investigational agent were based upon clinically achievable concentrations if the clinical Cmax of the agent was known.
Compounds. The drugs and investigational agents: inavolisib (NSC800729), alpelisib (NSC765974), duvelisib (NSC772469), copanlisib (NSC816437), ipatasertib (NSC767898), afuresertib (NSC778305), talazoparib (NSC767125), sapanisertib (NSC764658), selumetinib (NSC741078), tovorafenib (DAY101, NSC766906), vemurafenib (NSC761431), ravoxertinib (NSC781343), sotorasib (NSC818433), MRTX1133 (NSC 836407), abemaciclib (NSC 768073), palbociclib (NSC758247), venetoclax (NSC 766270), SY5609 (NSC837396), enzalutamide (NSC755605), and darolutamide (NSC825331), were obtained from the National Cancer Institute (NCI) Developmental Therapeutics Program Chemical Repository. The FDA-approved anticancer drug set is available from the NCI Developmental Therapeutics Program. […] The stock solutions were prepared in dimethyl sulfoxide (DMSO, Sigma-Aldrich, St. Louis, MO, cat. D2650) at 800-fold the tested concentration and stored at -70 degrees C prior to their use. All drugs and investigational agents were tested over a range starting from a high concentration at or near the clinical Cmax and decreasing in half-log increments. If the clinical Cmax for an agent had not been determined, the highest concentration tested was 10 microM.
Cell Culture. All cells were maintained in an incubator at 37 degrees C and 5% CO2 with 95% humidity. The PDC lines were cultured according to standard operating procedures established by the NCI PDMR (https://pdmr.cancer.gov/sops/default.htm). All PDCs were thawed and cultured in Matrigel-coated flasks prepared with a working solution of 1X Ham's F-12 nutrient mix, without supplementation (Invitrogen, Waltham, MA, cat. 11765054), 100 U/mL penicillin-streptomycin (Invitrogen, cat. 15140122), and 2.5% Matrigel (Corning Inc., Corning, NY, cat. 354248) for the first three passages. The 354836-022-R-J1-PDC, 475296-252-R-J1-PDC, and 997726-040-R-J2-PDC lines were cultured in 6A media, which includes advanced DMEM/F-12 (Thermo Fisher Scientific, cat. 12634028), 10 mM HEPES (Thermo Fisher Scientific, cat. 15630080), 1X GlutaMAX supplement (Thermo Fisher Scientific, cat. 35050061), 0.1 mg/mL primocin (InvivoGen, San Diego, CA, cat. ant-pm-2), 10% defined fetal bovine serum, heat inactivated (HyClone Laboratories Inc., Logan, UT, cat. SH30070.03HI), 50% L-WRN conditioned media (ATCC, cat. CRL-3276), 1.25 mM N-Acetyl-L-cysteine (Sigma-Aldrich, cat. A9165), 10 mM nicotinamide (Sigma-Aldrich, cat. N0636), 1X B-27 supplement (Thermo Fisher Scientific, cat. 17504044), 1X N-2 supplement (Thermo Fisher Scientific, cat. 17502048), and 10 microM Y-27632 dihydrochloride (Tocris Bioscience, Bristol, United Kingdom, cat. 1254). The 624824-186-R-J2-PDC line was cultured in 6C/Colon 1B media, which includes all 6A media components plus 50 ng/mL human EGF recombinant protein (Thermo Fisher Scientific, cat. PHG0311). […]

SMILES: CC(=O)c1c(C)c2cnc(Nc3ccc(N4CCNCC4)cn3)nc2n(C2CCCC2)c1=O + CC(Nc1ccc2c(c1)OCCn1cc(N3C(=O)OCC3C(F)F)nc1-2)C(N)=O
- IC50 (second compound 0.00316 µM): > 100 nM
- IC50 (second compound 0.01 µM): > 100 nM
- IC50 (second compound 0.0316 µM): > 100 nM
- IC50 (second compound 0.1 µM): > 100 nM
- IC50 (second compound 0.316 µM): > 100 nM
- IC50 (second compound 1 µM): > 100 nM
- viability, T/C (second compound 0.00316 µM, first compound 0.000316 µM): 96.1%
- viability, T/C (second compound 0.00316 µM, first compound 0.001 µM): 95.3%
- viability, T/C (second compound 0.00316 µM, first compound 0.00316 µM): 96.8%
- viability, T/C (second compound 0.00316 µM, first compound 0.01 µM): 102%
- viability, T/C (second compound 0.00316 µM, first compound 0.0316 µM): 97.4%
- viability, T/C (second compound 0.00316 µM, first compound 0.1 µM): 89.9%
- viability, T/C (second compound 0.01 µM, first compound 0.000316 µM): 105%
- viability, T/C (second compound 0.01 µM, first compound 0.001 µM): 91%
- viability, T/C (second compound 0.01 µM, first compound 0.00316 µM): 93.6%
- viability, T/C (second compound 0.01 µM, first compound 0.01 µM): 110%
- viability, T/C (second compound 0.01 µM, first compound 0.0316 µM): 105%
- viability, T/C (second compound 0.01 µM, first compound 0.1 µM): 97.1%
- viability, T/C (second compound 0.0316 µM, first compound 0.000316 µM): 103%
- viability, T/C (second compound 0.0316 µM, first compound 0.001 µM): 92.7%
- viability, T/C (second compound 0.0316 µM, first compound 0.00316 µM): 89%
- viability, T/C (second compound 0.0316 µM, first compound 0.01 µM): 89%
- viability, T/C (second compound 0.0316 µM, first compound 0.0316 µM): 97%
- viability, T/C (second compound 0.0316 µM, first compound 0.1 µM): 79.3%
- viability, T/C (second compound 0.1 µM, first compound 0.000316 µM): 86.5%
- viability, T/C (second compound 0.1 µM, first compound 0.001 µM): 84.8%
- viability, T/C (second compound 0.1 µM, first compound 0.00316 µM): 101%
- viability, T/C (second compound 0.1 µM, first compound 0.01 µM): 88.4%
- viability, T/C (second compound 0.1 µM, first compound 0.0316 µM): 96%
- viability, T/C (second compound 0.1 µM, first compound 0.1 µM): 89.2%
- viability, T/C (second compound 0.316 µM, first compound 0.000316 µM): 89.5%
- viability, T/C (second compound 0.316 µM, first compound 0.001 µM): 72.1%
- viability, T/C (second compound 0.316 µM, first compound 0.00316 µM): 79.1%
- viability, T/C (second compound 0.316 µM, first compound 0.01 µM): 87.5%
- viability, T/C (second compound 0.316 µM, first compound 0.0316 µM): 83.8%
- viability, T/C (second compound 0.316 µM, first compound 0.1 µM): 84.1%
- viability, T/C (second compound 1 µM, first compound 0.000316 µM): 84.1%
- viability, T/C (second compound 1 µM, first compound 0.001 µM): 81.6%
- viability, T/C (second compound 1 µM, first compound 0.00316 µM): 73%
- viability, T/C (second compound 1 µM, first compound 0.01 µM): 90.6%
- viability, T/C (second compound 1 µM, first compound 0.0316 µM): 66.7%
- viability, T/C (second compound 1 µM, first compound 0.1 µM): 82%
